Test results published in ChEMBL document CHEMBL4007489, “First Bispecific Inhibitors of the Epidermal Growth Factor Receptor Kinase and the NF-κB Activity As Novel Anticancer Agents” (J Med Chem, 2017).

Columns and labels:
[1] = target: T1, Epidermal growth factor receptor (Homo sapiens, UniProt P00533); experiment: biochemical; type: cell-based
Homo sapiens = species on record: Homo sapiens; conditions: at 10 µM;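 note: luciferase reporter readout of NF-kappaB activity in human U937 cells, compound added 3 h before TNFalpha stimulation, signal read 2.5 h after stimulation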
Description: Inhibition of TNFalpha-stimulated NF-kappaB (unknown origin) expressed in human U937 cells at 10 uM incubated for 3 hrs followed by TNFalpha stimulation measured after 2.5 hrs by luciferase reporter gene assay

[2] = target: T1, Epidermal growth factor receptor; conditions: at 150 nM
MDA-MB-231 = experiment: cells; type: functional; conditions: Homo sapiens, MDA-MB-231, 48 h
Description: Growth inhibition of human MDA-MB-231 cells after 48 hrs by MTT assay

cells = type: cell-based; conditions: Homo sapiens, U-937
Description: Inhibition of TNFalpha-stimulated NF-kappaB (unknown origin) expressed in human U937 cells incubated for 3 hrs followed by TNFalpha stimulation measured after 2.5 hrs by luciferase reporter gene assay

T1 sequence (P00533 whole entry): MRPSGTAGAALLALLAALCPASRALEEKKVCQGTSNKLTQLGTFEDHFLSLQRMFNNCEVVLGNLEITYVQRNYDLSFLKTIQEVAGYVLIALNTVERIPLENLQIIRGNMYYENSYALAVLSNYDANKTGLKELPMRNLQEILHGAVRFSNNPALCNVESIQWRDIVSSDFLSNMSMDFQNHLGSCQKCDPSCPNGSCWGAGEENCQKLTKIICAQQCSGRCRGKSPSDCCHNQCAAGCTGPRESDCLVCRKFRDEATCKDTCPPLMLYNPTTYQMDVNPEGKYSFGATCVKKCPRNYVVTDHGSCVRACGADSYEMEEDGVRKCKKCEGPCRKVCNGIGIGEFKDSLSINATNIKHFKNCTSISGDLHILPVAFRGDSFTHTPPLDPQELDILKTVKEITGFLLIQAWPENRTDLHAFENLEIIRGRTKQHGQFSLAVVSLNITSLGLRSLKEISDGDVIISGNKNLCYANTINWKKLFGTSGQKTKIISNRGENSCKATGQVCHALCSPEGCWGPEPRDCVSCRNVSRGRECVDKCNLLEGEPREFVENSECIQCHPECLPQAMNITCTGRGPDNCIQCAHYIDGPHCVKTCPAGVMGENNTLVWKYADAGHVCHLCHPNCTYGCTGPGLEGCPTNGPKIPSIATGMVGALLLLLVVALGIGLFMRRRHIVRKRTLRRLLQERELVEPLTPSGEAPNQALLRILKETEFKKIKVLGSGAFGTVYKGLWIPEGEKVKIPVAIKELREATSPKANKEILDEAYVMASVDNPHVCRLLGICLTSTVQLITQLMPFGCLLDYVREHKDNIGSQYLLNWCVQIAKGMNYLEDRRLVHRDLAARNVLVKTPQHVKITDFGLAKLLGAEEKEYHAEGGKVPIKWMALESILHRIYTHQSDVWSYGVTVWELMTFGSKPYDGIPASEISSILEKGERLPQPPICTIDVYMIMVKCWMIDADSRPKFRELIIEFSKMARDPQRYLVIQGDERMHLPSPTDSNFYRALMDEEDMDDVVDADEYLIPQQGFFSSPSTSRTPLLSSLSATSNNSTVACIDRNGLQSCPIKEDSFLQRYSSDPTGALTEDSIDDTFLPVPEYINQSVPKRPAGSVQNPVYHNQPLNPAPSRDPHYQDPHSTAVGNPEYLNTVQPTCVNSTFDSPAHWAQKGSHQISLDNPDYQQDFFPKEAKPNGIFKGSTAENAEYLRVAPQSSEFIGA

Row | SMILES | IC50 [1] | inhibition (Homo sapiens) | inhibition [2] | GI50 (MDA-MB-231) | IC50 (cells)
1 | S=C(NCCN1CCOCC1)Nc1ccc2ncnc(Nc3cccc(Br)c3)c2c1 | 10.7 nM | 20.9% | 91.8% | > 30000 nM | 
2 | O=C(Nc1ccc2ncnc(Nc3cccc(Br)c3)c2c1)c1ccco1 | 8.4 nM | 39.4% |  |  | 
3 | S=C(Nc1ccc2ncnc(Nc3cccc(Br)c3)c2c1)Nc1ccccc1Cl | 15.8 nM | 95.8% | 84.3% | 8500 nM | 3500 nM
4 | FC(F)(F)c1cccc(NC(=S)Nc2ccc3ncnc(Nc4cccc(Br)c4)c3c2)c1 | 60.7 nM | 96.5% | 57.5% | 1400 nM | 1000 nM
5 | Fc1c(NC(=S)Nc2ccc3ncnc(Nc4cccc(Br)c4)c3c2)cccc1C(F)(F)F |  | 98% |  | 400 nM | 1300 nM
6 | CCc1cccc(Nc2ncnc3ccc(NC(=S)NCc4ccccc4)cc23)c1 | > 150 nM | 92.5% | 41.7% | 10500 nM | 4800 nM
7 | Oc1ccc(Nc2ncnc3ccc(NC(=S)NCc4ccccc4)cc23)cc1 | > 150 nM | 24.1% | 44.1% | 27000 nM | 
8 | FC(F)(F)c1cc(NC(=S)Nc2ccc3ncnc(Nc4cccc(Br)c4)c3c2)cc(C(F)(F)F)c1 | > 150 nM | 100% | 32.3% | 800 nM | 1900 nM
9 | S=C(Nc1ccccc1)Nc1ccc2ncnc(Nc3cccc(Br)c3)c2c1 | 15.8 nM | 90.7% | 86.5% | 10000 nM | 5200 nM
10 | S=C(NCc1ccccc1)Nc1ccc2ncnc(Nc3ccc(-c4ccccc4)cc3)c2c1 | > 150 nM | 89.1% | 14.5% | 8400 nM | 4400 nM
11 | N=C(N)NS(=O)(=O)c1ccc(Nc2ncnc3ccc(NC(=S)NCc4ccccc4)cc23)cc1 | > 150 nM | 21.7% | 6.7% | > 30000 nM | 
12 | C=CC(=O)Nc1ccc2ncnc(Nc3ccc(Br)cc3F)c2c1 | 2.1 nM | 73.6% |  |  | 
13 | Oc1cccc(Nc2ncnc3ccc(NC(=S)NCc4ccccc4)cc23)c1 | 63.6 nM | 44.3% | 60.8% | > 30000 nM | 
14 | CNC(=S)Nc1ccc2ncnc(Nc3cccc(Br)c3)c2c1 | 9.1 nM | 3% | 92.2% | > 30000 nM | 
15 | S=C(Nc1ccc(Cl)cc1)Nc1ccc2ncnc(Nc3cccc(Br)c3)c2c1 | 19.5 nM | 89.5% | 79.6% | 8200 nM | 4900 nM
16 | Cc1cccc(Nc2ncnc3ccc(NC(=S)NCc4ccccc4)cc23)c1 | 36.8 nM | 76.4% | 68.5% | 19500 nM | 
17 | O=C(NCc1ccccc1)Nc1ccc2ncnc(Nc3cccc(Br)c3)c2c1 | 8.9 nM | 42.6% | 89.9% | > 30000 nM | 
18 | S=C(Nc1ccc(Br)cc1)Nc1ccc2ncnc(Nc3cccc(Br)c3)c2c1 | 35.4 nM | 96.7% | 70.4% | > 30000 nM | 2000 nM
19 | Cc1cccc(Nc2ncnc3ccc(NC(=S)NCc4ccccc4)cc23)c1C | > 150 nM | 71.5% | 40% | 28700 nM | 
20 | NS(=O)(=O)c1ccc(Nc2ncnc3ccc(NC(=S)NCc4ccccc4)cc23)cc1 | > 150 nM | 19.2% | 17.7% | > 30000 nM | 
21 | FC(F)(F)c1ccc(NC(=S)Nc2ccc3ncnc(Nc4cccc(Br)c4)c3c2)cc1 | > 150 nM | 94.8% | 38.1% | 12200 nM | 1700 nM

Row | SMILES | IC50 [1] | inhibition (Homo sapiens) | inhibition [2] | GI50 (MDA-MB-231) | IC50 (cells)
22 | S=C(Nc1ccc(Cl)c(Cl)c1)Nc1ccc2ncnc(Nc3cccc(Br)c3)c2c1 | 133 nM | 97.2% | 52.9% | 4800 nM | 1900 nM
23 | O=S(=O)(Nc1nccs1)c1ccc(NC(=S)Nc2ccc3ncnc(Nc4cccc(Br)c4)c3c2)cc1 | 22 nM | 16.5% | 81.7% | > 30000 nM | 
24 | C=CC(=O)Nc1ccc2ncnc(Nc3cccc(C)c3F)c2c1 | 1.5 nM | 70% |  |  | 
25 | S=C(NCc1ccccc1)Nc1ccc2ncnc(Nc3cccc(Cl)c3)c2c1 |  | 89.7% |  | 7300 nM | 3700 nM
26 | S=C(Nc1cc(Cl)cc(Cl)c1)Nc1ccc2ncnc(Nc3cccc(Br)c3)c2c1 | 146 nM | 99.6% | 50.9% | 3000 nM | 1800 nM
27 | S=C(Nc1ccc2ncnc(Nc3cccc(Br)c3)c2c1)Nc1ccc(Cl)cc1Cl | 48.9 nM | 93.1% | 66% | 12200 nM | 2900 nM
28 | CC(C)c1ccc(Nc2ncnc3ccc(NC(=S)NCc4ccccc4)cc23)cc1 | > 150 nM | 95.7% | 4.2% | 12800 nM | 4300 nM
29 | S=C(NCc1ccccc1)Nc1ccc2ncnc(Nc3ccccc3Br)c2c1 | > 150 nM | 85.7% | 13.1% | > 30000 nM | 6500 nM
30 | CC(C)(C)c1ccc(Nc2ncnc3ccc(NC(=S)NCc4ccccc4)cc23)cc1 | > 150 nM | 91.9% | 0.9% | 8700 nM | 5510 nM
31 | S=C(Nc1ccc2ncnc(Nc3cccc(Br)c3)c2c1)N1CCOCC1 | 26.9 nM | 40.1% | 84% | > 30000 nM | 
32 | O=C(Nc1ccc(Cl)cc1)Nc1ccc2ncnc(Nc3cccc(Br)c3)c2c1 | 19.3 nM | 50.3% | 69% | 10000 nM | 
33 | S=C(NCc1ccccc1)Nc1ccc2ncnc(Nc3ccc(Oc4ccccc4)cc3)c2c1 | > 150 nM | 73.7% | 21.9% | 6800 nM | 
34 | S=C(NCc1ccc(Cl)cc1)Nc1ccc2ncnc(Nc3cccc(Br)c3)c2c1 | 28.3 nM | 78.6% | 77.5% | 23000 nM | 
35 | S=C(NCc1ccccc1)Nc1ccc2ncnc(Nc3ccc(Br)cc3)c2c1 | > 150 nM | 92.1% | 47.7% | 15100 nM | 3800 nM
36 | O=S(=O)(Nc1ccccn1)c1ccc(Nc2ncnc3ccc(NC(=S)NCc4ccccc4)cc23)cc1 | > 150 nM | 6.6% | 20.9% | > 30000 nM | 
37 | COc1ccc(C(=O)Nc2ccc3ncnc(Nc4cccc(Br)c4)c3c2)cc1 |  | 33.2% |  |  | 
38 | NS(=O)(=O)c1ccc(NC(=S)Nc2ccc3ncnc(Nc4cccc(Br)c4)c3c2)cc1 | 9.5 nM | 29% | 92.3% | > 30000 nM | 
39 | S=C(Nc1cccnc1)Nc1ccc2ncnc(Nc3cccc(Br)c3)c2c1 | 10.2 nM | 42.4% | 90.4% | > 30000 nM | 
40 | Oc1ccc(NC(=S)Nc2ccc3ncnc(Nc4cccc(Br)c4)c3c2)cc1 | 8.9 nM | 85.3% | 91.5% | 17300 nM | 6400 nM
41 | S=C(NCc1ccccc1)Nc1ccc2ncnc(Nc3cccnc3)c2c1 | > 150 nM | 7.7% | 38.5% | 17900 nM | 
